# Measured values from PubChem BioAssay (NCI).
#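 1) Cells in 96-well plates. 2) Compound, 48 h, 5 concentrations. 3) Linear interpolation between surrounding doses. 4) Unreached endpoint = highest concentration. Abbreviation: GI50, concentration required for 50% inhibition of growth. At the TGI there is no net growth.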
# Key:
# Test in all cases: NCI-60 cell line screen, 48 h
# ACHN renal = system: ACHN renal
# LOX IMVI melanoma = system: LOX IMVI melanoma
# OVCAR-5 ovarian = system: OVCAR-5 ovarian
# SK-OV-3 ovarian = system: SK-OV-3 ovarian
# UO-31 renal = system: UO-31 renal
# NCI/ADR-RES ovarian = system: NCI/ADR-RES ovarian
# NCI-H226 lung = system: NCI-H226 lung
# A498 renal = system: A498 renal
# A549 NSCLC = system: A549 NSCLC
# MOLT-4 leukemia = system: MOLT-4 leukemia
# MDA-MB-231 breast = system: MDA-MB-231 breast
SMILES,TGI (ACHN renal) [µM],TGI (LOX IMVI melanoma) [µM],TGI (OVCAR-5 ovarian) [µM],TGI (SK-OV-3 ovarian) [µM],TGI (UO-31 renal) [µM],TGI (NCI/ADR-RES ovarian) [µM],TGI (NCI-H226 lung) [µM],TGI (A498 renal) [µM],TGI (A549 NSCLC) [µM],TGI (MOLT-4 leukemia) [µM],TGI (MDA-MB-231 breast) [µM],GI50 (ACHN renal) [µM],GI50 (SK-OV-3 ovarian) [µM],GI50 (UO-31 renal) [µM],GI50 (NCI/ADR-RES ovarian) [µM],GI50 (A498 renal) [µM],GI50 (A549 NSCLC) [µM],GI50 (MOLT-4 leukemia) [µM],GI50 (MDA-MB-231 breast) [µM],GI50 (OVCAR-5 ovarian) [µM]
CCOC(=O)C(NC(=O)CC(C)C)(Nc1ccc(S(=O)(=O)Nc2nc(C)cc(C)n2)cc1)C(F)(F)F (centres undefined),> 100,> 100,> 100,> 100,> 100,> 100,> 100,> 100,> 100,> 100,> 100,,,,,,,,,
Cc1ccc(S(=O)(=O)NC2C(=O)c3ccccc3C(=O)C2n2cnc3ccccc32)cc1 (centres undefined),> 100,> 100,> 100,> 100,,73.6,> 100,,> 100,68.1,> 100,,,,,,,,,
CCCCCCCCC/C=C1\CC(CO)(COC(=O)C2CCCCC2)OC1=O (centres undefined),69.1,24,38,70.8,55.8,38.1,74.4,50.6,48.3,57.6,44.8,,,,,,,,,
COc1cc(C2c3cc4c(cc3OC(Nc3ccccc3)C2C)OCO4)cc(OC)c1OC (centres undefined),> 61.4,> 100,> 100,> 100,> 100,> 100,12.8,1.69,> 100,8.28,> 52.4,,,,,,,,,
N#Cc1c(Cl)c2ccccc2n2c1nc1ccccc12,32.6,34.6,> 100,> 100,38.2,65.6,59,> 100,> 100,75.9,74,,,,,,,,,
O=c1oc2ccccc2c(O)c1C(c1ccc(/C=C/c2ccccc2)cc1)c1c(O)c2ccccc2oc1=O,35.6,73.3,,,41.1,60.3,74.4,> 100,,66.8,67.9,,,,,,,,,
CN(C)C(=O)Nc1cc2c3c(c1)CCCN3CCC2,> 10,> 10,,> 10,> 10,> 10,> 10,> 10,> 10,> 10,> 10,,,,,,,,,
Cc1cccc2[s+]snc12,> 100,> 100,> 100,> 100,> 100,,> 100,> 100,> 100,> 65.2,,,,,,,,,,
NNc1nc2ccccc2s1,> 100,> 100,> 100,,> 100,> 100,> 100,> 100,> 100,> 100,> 100,,,,,,,,,
Cn1c(Nc2ccccc2)c(C=Nc2ccccc2)c(=O)n(C)c1=O,,> 100,> 100,> 100,> 100,> 100,,> 100,> 100,> 100,> 100,,,,,,,,,
COC(=O)C1[C@@H](C(=O)OC)C12C=Cc1ccccc1C=C2 (some centres undefined),> 100,> 100,> 100,> 100,> 100,,,> 100,> 100,> 100,,,,,,,,,,
C#C[C@]1(O)CCC2C3CCc4cc(Oc5nc(F)nc(-c6c7cc8ccccc8cc7c7n6CCS7)n5)ccc4C3CCC21C (some centres undefined),> 100,> 100,,> 100,> 100,,> 100,,> 100,> 100,,,,,,,,,,
CCCn1c(SCC)c2cc3cc4ccccc4cc3cc2c1-c1nc(F)nc(F)n1,> 100,> 100,> 100,> 100,> 100,,> 100,,> 100,> 100,,,,,,,,,,
CCOC(=O)c1c(-c2ccc(O)c(OC)c2)c(C#N)c(=S)n(C2OC(COC(C)=O)C(OC(C)=O)C(OC(C)=O)C2OC(C)=O)c1-c1ccccc1 (centres undefined),> 100,> 100,> 100,,> 100,> 100,,> 100,> 100,> 100,,,,,,,,,,
CCCN1CN(C(C(=O)N[C@@H]2C(=O)N3C(C(=O)O)=C(C)CSC23)c2ccc(O)cc2)CSC1=S (some centres undefined),> 100,> 100,> 100,> 100,> 100,,,> 100,> 100,> 100,,,,,,,,,,
Cn1c(NS(=O)(=O)c2ccccc2)nc2ccccc21,> 100,,> 100,> 100,> 100,> 100,> 100,> 100,> 100,> 100,> 100,,,,,,,,,
COc1cc(Nc2cnc3cc(F)c(F)cc3n2)cc(OC)c1,> 100,> 100,> 100,79.1,> 100,> 100,> 100,> 100,> 100,> 100,,,,,,,,,,
COC(=O)c1ccccc1/C=C1\Cc2cc(C)cc(C)c2C1=O,> 100,> 100,> 100,,,,> 100,> 100,> 100,> 100,> 100,,,,,,,,,
c1cn2cc(-c3ccc4ncn(C5CCCCC5)c4c3)nc(-c3ccc4c(c3)ncn4C3CCCCC3)c2n1,3.07,,,4.1,2.85,7.33,,3.22,3.54,5.22,3.08,1.68,2.27,1.49,2.34,1.77,1.94,1.64,1.29,
O=C(c1cccs1)N(C(=S)N1CCN(c2ccccn2)CC1)C1CCCCC1,> 100,> 100,> 100,> 100,> 100,,73.8,,> 100,> 100,,,,,,,,,,
Cc1cc(NCCCCCCCCCC[n+]2c(C)cc(N)c3ccccc32)c2ccccc2n1,10.1,,24.7,12.9,26.4,74.8,> 100,15.4,61.8,5.23,5.61,,,,,,,,,
COc1ccc(C2=C(N)c3c(OC)cccc3C2=O)cc1,,> 100,> 100,> 100,> 100,> 100,> 100,> 100,,> 100,> 100,,,,,,,,,

SMILES,TGI (ACHN renal) [µM],TGI (LOX IMVI melanoma) [µM],TGI (OVCAR-5 ovarian) [µM],TGI (SK-OV-3 ovarian) [µM],TGI (UO-31 renal) [µM],TGI (NCI/ADR-RES ovarian) [µM],TGI (NCI-H226 lung) [µM],TGI (A498 renal) [µM],TGI (A549 NSCLC) [µM],TGI (MOLT-4 leukemia) [µM],TGI (MDA-MB-231 breast) [µM],GI50 (ACHN renal) [µM],GI50 (SK-OV-3 ovarian) [µM],GI50 (UO-31 renal) [µM],GI50 (NCI/ADR-RES ovarian) [µM],GI50 (A498 renal) [µM],GI50 (A549 NSCLC) [µM],GI50 (MOLT-4 leukemia) [µM],GI50 (MDA-MB-231 breast) [µM],GI50 (OVCAR-5 ovarian) [µM]
O=C(O)c1ccccc1C(=O)Nn1cnnc1,> 100,> 100,> 100,> 100,> 100,> 100,,,> 100,> 100,> 100,,,,,,,,,
O=C(C1C(c2ccccc2)N1C(c1ccccc1)c1ccccc1)C1C(c2ccccc2)N1C(c1ccccc1)c1ccccc1 (centres undefined),,,81.2,> 100,38.4,> 100,,,> 100,33.4,45.4,,,,,,,,,
OC(C/C(=N\N1CCCCC1)c1cccs1)(C(F)(F)F)C(F)(F)F,> 10,> 10,,> 10,> 10,> 10,> 10,> 10,> 10,> 10,> 10,,,,,,,,,
Cc1ccc(SCC(CF)OCn2cc(F)c(=O)[nH]c2=O)cc1 (centres undefined),> 100,> 100,> 100,> 100,> 100,> 100,,> 100,> 100,> 100,> 100,,,,,,,,,
C[C@H]1C[C@H](C)c2ccccc2N(C)C1=Nc1ccccc1,> 100,31.7,78,,> 100,> 100,83.6,84.4,> 100,72.7,41.4,,,,,,,,,
O=C1c2ccccc2-c2ccc(N=Nc3c(O)ccc4ccccc34)cc21,,> 100,> 100,> 100,> 100,> 100,> 100,> 100,> 100,> 100,> 100,,,,,,,,,
CC1=NN(C(=O)c2ccccc2O)C(=O)/C1=C/c1ccccc1O,33.1,31.9,> 93.8,,1.56,> 36.7,16.4,0.124,> 100,51,> 100,,,,,,,,,
O=c1[nH]c(=S)[nH]n1C(=S)n1[nH]c(=S)[nH]c1=O,> 100,> 100,> 100,,> 100,> 100,> 100,> 100,> 100,> 100,> 100,,,,,,,,,
O=c1oc2ccccc2nc1/C=C(\O)c1ccc([N+](=O)[O-])cc1,> 100,,> 100,> 100,> 100,> 100,> 100,> 100,> 100,> 100,> 100,,,,,,,,,
O=C1C(=O)c2ccccc2C(O)=C1CN(CCCl)CCCl,> 100,,> 100,> 100,> 100,,,> 100,> 100,> 100,,,,,,,,,,
COC1=C(N2CC2)C(=O)c2nc3n(c2C1=O)CCC3,0.851,2.15,3.46,3.04,,3.53,4.76,2.86,6.47,2.41,6.28,,,,,,,,,
CCOC(=O)C1C(c2ccc(OC)cc2)c2c([nH][nH]c2=O)CC1(O)OCC (centres undefined),> 100,> 100,> 100,,> 100,> 100,,> 100,> 100,> 100,> 100,,,,,,,,,
COC(=O)C1=Cc2cc(OC)c(O)cc2[C@@H](c2ccc(O)c(OC)c2)[C@@H]1C(=O)OC,> 100,> 100,> 100,,> 100,> 100,> 100,> 100,> 100,> 100,> 100,,,,,,,,,
CC(=O)OCC1OC(N2C(C)=C(C(C)=O)C(c3ccco3)C(C#N)=C2S)C(OC(C)=O)C(OC(C)=O)C1OC(C)=O (centres undefined),> 100,> 100,> 100,,> 100,> 100,> 100,> 100,> 100,> 100,> 100,,,,,,,,,
CCCCCC(CO)C(O)(C(F)(F)F)C(F)(F)F (centres undefined),> 10,> 10,> 10,> 10,,> 10,> 10,> 10,> 10,> 10,> 10,,,,,,,,,
CCCCC(=O)NC1(c2cc3ccccc3s2)CCCCC1,> 100,> 100,> 100,> 100,> 100,> 100,> 100,> 100,> 100,,> 100,,,,,,,,,
Cc1nn(-c2ccccc2)c2[nH]c(=S)cnc12,,> 100,> 100,> 100,> 100,> 100,> 100,> 100,> 100,> 100,,,,,,,,,,
[N-]=[NH+]CC(=O)OC(COCc1ccccc1)COCc1ccccc1,> 100,> 100,> 100,> 100,63,,> 100,> 100,,> 100,> 100,,,,,,,,,
CCCCCCCCCCCCC(O)C1CCC(C(O)CCCCCCC(O)CCCCCCCC2=CC(C)OC2=O)O1 (centres undefined),> 100,39.8,> 100,,35,> 100,> 100,> 100,> 100,33,> 100,18.9,,17,31.5,,21.7,3.17,,> 100
O=[N+]([O-])c1ccc2[nH]ncc2c1Cl,51.5,38.9,62.5,> 100,,> 100,> 100,> 100,> 100,72.6,35,,,,,,,,,
COc1cc(C=Nc2ccc(C(C)C)cc2)cc(OC)c1OC,> 100,> 100,> 100,> 100,> 100,,> 100,> 100,> 100,> 100,,,,,,,,,,
